Laboratory results as given in US12644886B2, “Biosensor microarray compositions and methods” (Arizona Board of Regents on Behalf of Arizona State …, priority 2013, dated 2026).

Target: Src kinase (Homo sapiens, UniProt P12931)
Assay: FET biosensor detection of Src kinase auto-phosphorylation (phosphokinase activity)
Type: biochemical
Source text: FIG. 6 FET Biosensor detection of phosphokinase activity.
In some embodiments the biosensor microarray is used to quantify kinetic rates of interaction between one or more analytes in a test sample and the corresponding detector polypeptides. In other embodiments, the biosensor microarray is used to assess inhibition of a protein activity or a protein-protein interaction. For example, where the detector polypeptide is a protein kinase substrate or a kinase with autophosphorylation activity, phosphokinase activity can be detected in the presence or absence of a known or putative inhibitor of the specific phosphokinase activity (see, e.g. FIGS. 6-7). […] Further, where increased kinase phosphorylation is associated with a particular disease state, the kinase activity of particular biological samples can be assessed by contacting a biosensor microarray described herein with the relevant biological sample and detecting phosphorylation of one or more detector polypeptides. Protein kinases are important targets in a number of health condition, e.g., cancer, pulmonary hypertension, diabetes, Alzheimer's, Parkinson's, CNS diseases, macular degeneration, Idiopathic pulmonary fibrosis, systemic sclerosis, rheumatoid disorders, among other diseases, allowing discovery of kinase inhibitor drugs and applying kinase functional screening as disease diagnostics

Src kinase, sequence (P12931 whole entry): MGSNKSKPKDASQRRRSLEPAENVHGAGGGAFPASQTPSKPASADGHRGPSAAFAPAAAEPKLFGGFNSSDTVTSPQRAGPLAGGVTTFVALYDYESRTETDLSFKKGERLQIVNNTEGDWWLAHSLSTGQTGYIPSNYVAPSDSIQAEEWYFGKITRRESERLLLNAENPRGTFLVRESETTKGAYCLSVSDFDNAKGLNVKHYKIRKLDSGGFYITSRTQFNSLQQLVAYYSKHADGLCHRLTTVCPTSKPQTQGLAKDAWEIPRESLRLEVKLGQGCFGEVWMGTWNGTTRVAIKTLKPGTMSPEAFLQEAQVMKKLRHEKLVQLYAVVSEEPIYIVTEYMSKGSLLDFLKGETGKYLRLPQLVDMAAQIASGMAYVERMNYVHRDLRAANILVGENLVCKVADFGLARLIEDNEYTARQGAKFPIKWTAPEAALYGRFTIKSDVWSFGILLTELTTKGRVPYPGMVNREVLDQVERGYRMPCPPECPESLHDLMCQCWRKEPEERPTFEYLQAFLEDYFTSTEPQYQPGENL

## Nc1ncnc2c1ncn2[C@@H]1O[C@H](COP(=O)(O)OP(=O)(O)O)[C@@H](O)[C@H]1O [ADP]
Addition of ADP instead of ATP
  FDEC FET sensor response to Src kinase auto-phosphorylation upon addition: no response

## Nc1ncnc2c1ncn2[C@@H]1O[C@H](COP(=O)(O)OP(=O)(O)OP(=O)(O)O)[C@@H](O)[C@H]1O [ATP]
Upon addition of 10 mM ATP
  threshold voltage response (FDEC FET response to Src kinase auto-phosphorylation by detecting H+): 200 mV

## CN[C@@H]1C[C@H]2O[C@@](C)([C@@H]1OC)n1c3ccccc3c3c4c(c5c6ccccc6n2c5c31)C(=O)NC4 [Staurosporine]
2 μM staurosporine, FET-based biosensor microarray
  Src kinase inhibition (real time detection of Src kinase autophosphorylation): inhibition
